Test results: PubChem BioAssay AID248 (DTP/NCI, 2004)
“And” between values parts separate entries of the source, which are not always exact repeats. Identical values can stand only once. Inconclusive results and toxic doses are left out. Cut-off read from the data, not from the text of the source: active = T/C of 150% or more; inactive = T/C below 125%.

Test system: L1210 leukemia ip in BDF1 mice, survival T/C
Assay: NCI In Vivo Anticancer Drug Screen. Data for tumor model L1210 Leukemia (intraperitoneal) in B6D2F1 (BDF1) mice
Conditions: endpoint: mean survival time, higher = longer survival
Method in brief: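 Mice bearing the transplanted tumor received compound or vehicle. Survival of the treated group was divided by that of the vehicle-treated control group to give the ratio.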

[1] = dose: 50.0 mg/kg/injection, schedule: Q01DX001 (ip), vehicle: other
[2] = dose: 75.0 mg/kg/injection, schedule: Q01DX001 (ip), vehicle: other
[3] = dose: 100.0 mg/kg/injection, schedule: Q01DX009 (ip), vehicle: saline with Tween-80
[4] = dose: 200.0 mg/kg/injection, schedule: Q01DX009 (ip), vehicle: saline with Tween-80
[5] = dose: 100.0 mg/kg/injection, schedule: Q01DX001 (ip), vehicle: other
[6] = dose: 100.0 mg/kg/injection, schedule: Q04DX003 (ip), vehicle: carboxymethylcellulose (CMC)
[7] = dose: 200.0 mg/kg/injection, schedule: Q04DX003 (ip), vehicle: carboxymethylcellulose (CMC)
[8] = dose: 400.0 mg/kg/injection, schedule: Q01DX009 (ip), vehicle: saline
[9] = dose: 100.0 mg/kg/injection, schedule: Q01DX001 (ip), vehicle: saline
[10] = dose: 200.0 mg/kg/injection, schedule: Q01DX001 (ip), vehicle: saline
[11] = dose: 400.0 mg/kg/injection, schedule: Q01DX001 (ip), vehicle: saline
[12] = dose: 100.0 mg/kg/injection, schedule: Q01DX009 (ip), vehicle: Klucel (hydroxypropylcellulose) (HPC)
[13] = dose: 200.0 mg/kg/injection, schedule: Q01DX009 (ip), vehicle: Klucel (hydroxypropylcellulose) (HPC)
[14] = dose: 400.0 mg/kg/injection, schedule: Q01DX009 (ip), vehicle: Klucel (hydroxypropylcellulose) (HPC)

Measured: T/C

O=C(CCl)c1ccc(O)c(O)c1
inactive: dose: 6.25 mg/kg/injection, schedule: Q01DX009 (ip), vehicle: saline 94 % of control | dose: 12.5 mg/kg/injection, schedule: Q01DX009 (ip), vehicle: saline 105 % of control | dose: 33.0 mg/kg/injection, schedule: Q01DX001 (ip), vehicle: other 105 % of control | [1] 108 % of control | [2] 109 % of control | dose: 112.0 mg/kg/injection, schedule: Q01DX001 (ip), vehicle: other 108 % of control

CC(C)N(/N=N/c1[nH]ncc1C(N)=O)C(C)C
inactive: dose: 100.0 mg/kg/injection, schedule: Q01DX001 (ip), vehicle: saline with Tween-80 104 % of control | [3] 108 % of control | dose: 200.0 mg/kg/injection, schedule: Q01DX001 (ip), vehicle: saline with Tween-80 104 % of control | [4] 98 % of control | dose: 400.0 mg/kg/injection, schedule: Q01DX001 (ip), vehicle: saline with Tween-80 93 % of control | dose: 400.0 mg/kg/injection, schedule: Q01DX009 (ip), vehicle: saline with Tween-80 95 % of control

Cc1ccc(NC(=O)N(CCCl)N=O)c(C)c1
active: dose: 10.0 mg/kg/injection, schedule: Q01DX009 (ip), vehicle: other 180 % of control | dose: 16.0 mg/kg/injection, schedule: Q01DX009 (ip), vehicle: other 241 % of control | dose: 24.0 mg/kg/injection, schedule: Q01DX009 (ip), vehicle: other 158 % of control | dose: 25.0 mg/kg/injection, schedule: Q01DX001 (ip), vehicle: other 153 % of control | [1] 158 % of control
inactive: [5] 101 % of control

CCOC(C#CC1CCCC1)OCC
inactive: dose: 50.0 mg/kg/injection, schedule: Q01DX009 (ip), vehicle: saline with Tween-80 95 % of control | [3] 92 % of control | [4] 100 % of control

CCCCNS(=O)(=O)c1ccc(NC(=O)c2ccc3ccccc3c2O)c([N+](=O)[O-])c1
inactive: dose: 100.0 mg/kg/injection, schedule: Q04DX003 (ip), vehicle: saline with Tween-80 90 % of control | dose: 200.0 mg/kg/injection, schedule: Q04DX003 (ip), vehicle: saline with Tween-80 88 % of control | dose: 400.0 mg/kg/injection, schedule: Q04DX003 (ip), vehicle: saline with Tween-80 88 % of control

CCC1(C(C)=O)CN2CCc3cc(OC)c(OC)cc3C2N2CCc3ccc(OC)c(OC)c3C21 (centres undefined)
inactive: [6] 95 % of control | [7] 98 % of control | dose: 400.0 mg/kg/injection, schedule: Q04DX003 (ip), vehicle: carboxymethylcellulose (CMC) 95 % of control

NC(=O)CC[n+]1cccc(C(=O)O)c1
inactive: dose: 100.0 mg/kg/injection, schedule: Q01DX009 (ip), vehicle: saline 93 % of control | dose: 100.0 mg/kg/injection, schedule: Q04DX003 (ip), vehicle: saline 94 % of control | dose: 200.0 mg/kg/injection, schedule: Q01DX009 (ip), vehicle: saline 88 % of control | dose: 200.0 mg/kg/injection, schedule: Q04DX003 (ip), vehicle: saline 93 % of control | [8] 92 % of control | dose: 400.0 mg/kg/injection, schedule: Q04DX003 (ip), vehicle: saline 94 % of control

c1ccc2cc(-c3cc4ccccc4s3)ccc2c1
inactive: [9] 106 % of control | dose: 100.0 mg/kg/injection, schedule: Q01DX009 (ip), vehicle: acetone 98 % of control | dose: 100.0 mg/kg/injection, schedule: Q04DX003 (ip), vehicle: acetone 100 % of control | [10] 103 % of control | dose: 200.0 mg/kg/injection, schedule: Q01DX009 (ip), vehicle: acetone 104 % of control | dose: 200.0 mg/kg/injection, schedule: Q04DX003 (ip), vehicle: acetone 98 % of control | dose: 264.0 mg/kg/injection, schedule: Q01DX009 (ip), vehicle: saline 110 % of control | [11] 104 % of control | [8] 115 % of control | dose: 400.0 mg/kg/injection, schedule: Q04DX003 (ip), vehicle: acetone 90 % of control

CC(O)CC[P+](c1ccccc1)(c1ccccc1)c1ccccc1 (centres undefined)
inactive: [2] 101 % of control | dose: 150.0 mg/kg/injection, schedule: Q01DX001 (ip), vehicle: other 93 % of control

OCC(O)C(O)C(O)C(O)c1nc2ccccc2[nH]1 (centres undefined)
inactive: dose: 100.0 mg/kg/injection, schedule: Q04DX002 (ip), vehicle: Klucel (hydroxypropylcellulose) (HPC) 105 % of control | dose: 200.0 mg/kg/injection, schedule: Q04DX002 (ip), vehicle: Klucel (hydroxypropylcellulose) (HPC) 87 % of control | dose: 400.0 mg/kg/injection, schedule: Q04DX002 (ip), vehicle: Klucel (hydroxypropylcellulose) (HPC) 97 % of control

CC(=O)Nc1nc(Cl)c2ncn(C3OC(COC(=O)c4ccccc4)C(OC(=O)c4ccccc4)C3OC(=O)c3ccccc3)c2n1 (centres undefined)
inactive: dose: 75.0 mg/kg/injection, schedule: Q01DX001 (ip), vehicle: saline 95 % of control | [9] 103 % of control | dose: 150.0 mg/kg/injection, schedule: Q01DX001 (ip), vehicle: saline 98 % of control | [10] 101 % of control | dose: 300.0 mg/kg/injection, schedule: Q01DX001 (ip), vehicle: saline 95 % of control | [11] 95 % of control

O=C(Nc1ccccc1F)Oc1ccc2ccccc2c1
inactive: [12] 106 % of control | [13] 107 % of control | [14] 103 % of control

CC(=O)OC1COC(n2cnc3c(=S)nc[nH]c32)C(OC(C)=O)C1OC(C)=O (centres undefined)
inactive: [5] 107 % of control | [9] 94 % of control | dose: 200.0 mg/kg/injection, schedule: Q01DX001 (ip), vehicle: other 90 % of control | [10] 93 % of control | dose: 400.0 mg/kg/injection, schedule: Q01DX001 (ip), vehicle: other 96 % of control | [11] 96 % of control

CCC(c1ccccc1)c1nc2ccccc2c2ccccc12 (centres undefined)
inactive: dose: 50.0 mg/kg/injection, schedule: Q01DX009 (ip), vehicle: Klucel (hydroxypropylcellulose) (HPC) 97 % of control | [12] 97 % of control | [13] 94 % of control

Cc1ccc(C(=O)c2ccc(C)cc2)cc1
inactive: dose: 12.5 mg/kg/injection, schedule: Q04DX002 (ip), vehicle: Klucel (hydroxypropylcellulose) (HPC) 91 % of control | dose: 25.0 mg/kg/injection, schedule: Q04DX002 (ip), vehicle: Klucel (hydroxypropylcellulose) (HPC) 94 % of control | dose: 50.0 mg/kg/injection, schedule: Q04DX002 (ip), vehicle: Klucel (hydroxypropylcellulose) (HPC) 97 % of control | [12] 101 % of control | dose: 100.0 mg/kg/injection, schedule: Q04DX002 (ip), vehicle: saline 101 % of control | dose: 100.0 mg/kg/injection, schedule: Q04DX003 (ip), vehicle: Klucel (hydroxypropylcellulose) (HPC) 100 % of control | [13] 97 % of control | dose: 200.0 mg/kg/injection, schedule: Q04DX002 (ip), vehicle: saline 101 % of control | dose: 200.0 mg/kg/injection, schedule: Q04DX003 (ip), vehicle: Klucel (hydroxypropylcellulose) (HPC) 89 % of control | [14] 98 % of control | dose: 400.0 mg/kg/injection, schedule: Q04DX003 (ip), vehicle: Klucel (hydroxypropylcellulose) (HPC) 100 % of control

COc1ccc(-c2oc3ccccc3c(=O)c2O)cc1
inactive: dose: 50.0 mg/kg/injection, schedule: Q01DX001 (ip), vehicle: saline 104 % of control | [9] 101 % of control | [10] 106 % of control | [11] 98 % of control

O=C(/C=C/c1ccccc1)NC(=S)Nc1ncccn1
inactive: dose: 100.0 mg/kg/injection, schedule: Q01DX009 (ip), vehicle: carboxymethylcellulose (CMC) 93 % of control and 96 % of control | dose: 100.0 mg/kg/injection, schedule: Q04DX002 (ip), vehicle: carboxymethylcellulose (CMC) 96 % of control and 104 % of control | [6] 94 % of control | dose: 200.0 mg/kg/injection, schedule: Q01DX009 (ip), vehicle: carboxymethylcellulose (CMC) 92 % of control and 96 % of control | dose: 200.0 mg/kg/injection, schedule: Q04DX002 (ip), vehicle: carboxymethylcellulose (CMC) 96 % of control and 98 % of control | [7] 91 % of control | dose: 400.0 mg/kg/injection, schedule: Q01DX009 (ip), vehicle: carboxymethylcellulose (CMC) 96 % of control and 104 % of control | dose: 400.0 mg/kg/injection, schedule: Q04DX002 (ip), vehicle: carboxymethylcellulose (CMC) 96 % of control and 91 % of control
